# Test results from ChEMBL document CHEMBL5331107 (J Med Chem, 2023).
# How the values were obtained:
# [1] = molecular target: Human immunodeficiency virus type 1 reverse transcriptase (Human immunodeficiency virus 1, UniProt Q72547); experiment: Inhibition of HIV-1 reverse transcriptase assessed as assessed as reduction of biotin-dUTP incorporation into […] incubated for 1 hrs by ELISA analysis
# [2] = Cytotoxicity against human MT4 cells assessed as reduction in cell viability incubated for 5 days by MTT assay; assay type: toxicity, cell-based; conditions: time 5 day
# in vitro [3] = conditions: human, MT4 cells
# Description: Selectivity index, ratio of CC50 for cytotoxicity against human MT4 cells to EC50 for antiviral activity against NNRTI-resistant HIV-1 harboring E138K mutant infected in human MT4 cells
# in vitro [4] = conditions: human, MT4 cells; remark: listed apart in the source
# Description: Selectivity index, ratio of CC50 for cytotoxicity against human MT4 cells to EC50 for antiviral activity against wildtype HIV-1 IIIB infected in human MT4 cells
# [5] = system: Human immunodeficiency virus 1; experiment: Antiviral activity against NNRTI-resistant HIV-1 harboring K103N mutant infected in human MT4 cells assessed as protection against virus-induced cytopathic effect incubated for 5 days by MTT assay; assay type: functional, organism-based; conditions: Human immunodeficiency virus 1, MT4, 120 h
# [6] = system: Human immunodeficiency virus 1; experiment: Antiviral activity against NNRTI-resistant HIV-1 harboring E138K mutant infected in human MT4 cells assessed as protection against virus-induced cytopathic effect incubated for 5 days by MTT assay; assay type: functional, organism-based; conditions: Human immunodeficiency virus 1, MT4, 120 h
# in vitro [7] = conditions: human, MT4 cells; remark: listed apart in the source
# Description: Selectivity index, ratio of CC50 for cytotoxicity against human MT4 cells to EC50 for antiviral activity against NNRTI-resistant HIV-1 harboring K103N mutant infected in human MT4 cells
# [8] = system: Human immunodeficiency virus 1; experiment: microbe, parasite or virus in culture; conditions: Human immunodeficiency virus 1, IIIB, MT4, 120 h
# Description: Antiviral activity against wild type HIV-1 IIIB infected in human MT4 cells assessed as protection against virus-induced cytopathic effect incubated for 5 days by MTT assay
# [9] = system: Human immunodeficiency virus 1; experiment: Antiviral activity against NNRTI-resistant HIV-1 harboring L100I mutant infected in human MT4 cells assessed as protection against virus-induced cytopathic effect incubated for 5 days by MTT assay; assay type: functional, organism-based; conditions: Human immunodeficiency virus 1, MT4, 120 h
# [10] = system: Human immunodeficiency virus 1; assay type: functional, organism-based; conditions: Human immunodeficiency virus 1, MT4, 120 h
# in vitro [11] = conditions: human, MT4 cells; remark: listed apart in the source
# Description: Selectivity index, ratio of CC50 for cytotoxicity against human MT4 cells to EC50 for antiviral activity against NNRTI-resistant HIV-1 harboring Y181C mutant infected in human MT4 cells
# [12] = system: Human immunodeficiency virus 1; experiment: Antiviral activity against NNRTI-resistant HIV-1 harboring F227L and V106A double mutant infected in human MT4 cells assessed as protection against virus-induced cytopathic effect incubated for 5 days by MTT assay; assay type: functional, organism-based; conditions: Human immunodeficiency virus 1, MT4, 120 h
# [13] = system: Human immunodeficiency virus 1; assay type: functional, organism-based; conditions: Human immunodeficiency virus 1, MT4, 120 h; remark: listed apart in the source
# in vitro [14] = conditions: human, MT4 cells; remark: listed apart in the source
# Description: Selectivity index, ratio of CC50 for cytotoxicity against human MT4 cells to EC50 for antiviral activity against NNRTI-resistant HIV-1 harboring K103N and Y181C mutant infected in human MT4 cells
# in vitro [15] = conditions: human, MT4 cells; remark: listed apart in the source
# Description: Selectivity index, ratio of CC50 for cytotoxicity against human MT4 cells to EC50 for antiviral activity against NNRTI-resistant HIV-1 harboring Y188L mutant infected in human MT4 cells
# [16] = system: Human immunodeficiency virus 1; assay type: functional, organism-based; conditions: Human immunodeficiency virus 1, MT4, 120 h; remark: listed apart in the source
# in vitro [17] = conditions: human, MT4 cells; remark: listed apart in the source
# Description: Selectivity index, ratio of CC50 for cytotoxicity against human MT4 cells to EC50 for antiviral activity against NNRTI-resistant HIV-1 harboring L100I mutant infected in human MT4 cells
# in vitro [18] = conditions: human, MT4 cells; remark: listed apart in the source
# Description: Selectivity index, ratio of CC50 for cytotoxicity against human MT4 cells to EC50 for antiviral activity against NNRTI-resistant HIV-1 harboring F227L and V106A mutant infected in human MT4 cells
# [19] = Metabolic stability in human liver assessed as intrinsic clearance incubated for 60 mins in the presence of NADPH by LC-MS/MS analysis; assay type: ADME, tissue-based; conditions: read-out: CLH
# [20] = Water solubility of the compound in phosphate buffer at pH 7.4; conditions: buffer
# [21] = Metabolic stability in human liver microsomes assessed as half-life incubated for 60 mins in the presence of NADPH by LC-MS/MS analysis; assay type: ADME, Microsome; conditions: microsomes, 1 h
# [22] = Metabolic stability in human liver microsomes assessed as compound remaining measured after 60 mins in the presence of NADPH by LC-MS/MS analysis; assay type: ADME, Microsome; conditions: microsomes, 1 h
# [23] = Metabolic stability in human liver microsomes assessed as intrinsic clearance incubated for 60 mins in the presence of NADPH by LC-MS/MS analysis; conditions: microsomes
SMILES,IC50 [1] [nM],CC50 at 120 h [2] [nM],selectivity ratio (in vitro [3]),selectivity ratio (in vitro [4]),EC50 [5] [nM],EC50 [6] [nM],selectivity ratio (in vitro [7]),EC50 [8] [nM],EC50 [9] [nM],EC50 [10] [nM],EC50 [13] [nM],EC50 [16] [nM],further results
Cc1cc(C#N)cc(C)c1Oc1nc(Nc2ccc(C#N)cc2)nc2c1CN(C(=O)c1ccc(F)cc1)CC2,154,6510,270,736,8.97,24.1,726,8.84,,,,,
Cc1cc(C#N)cc(C)c1Oc1nc(Nc2ccc(C#N)cc2)nc2c1CN(S(=O)(=O)N(C)C)CC2,84,62800,2060,7910,8.19,30.5,7670,7.94,,,,,
Cc1cc(C#N)cc(C)c1Oc1nc(Nc2ccc(C#N)cc2)nc2c1CN(C(=O)c1ccc([N+](=O)[O-])cc1)CC2,146,> 229000,> 6960,> 30000,9.81,32.9,> 23400,7.65,120,44.6,48.3,156,selectivity ratio (in vitro [11]): > 4740; EC50 [12]: 270 nM; selectivity ratio (in vitro [14]): > 1470; selectivity ratio (in vitro [15]): > 5130; selectivity ratio (in vitro [17]): > 1910; selectivity ratio (in vitro [18]): > 848
Cc1cc(C#N)cc(C)c1Oc1nc(Nc2ccc(C#N)cc2)nc2c1CN(C(=O)c1ccc(C(F)(F)F)cc1)CC2,297,> 220000,> 1670,> 7640,44,132,> 5000,28.8,,,,,
Cc1cc(C#N)cc(C)c1Oc1nc(Nc2ccc(C#N)cc2)nc2c1CN(Cc1ccc(B(O)O)cc1)CC2,180,11800,211,787,15.5,55.7,758,14.9,,,,,
Cc1cc(C#N)cc(C)c1Oc1nc(Nc2ccc(C#N)cc2)nc2c1CNCC2,57,19700,3520,10400,3.09,5.61,6380,1.89,33.2,19.5,45.4,383,selectivity ratio (in vitro [11]): 435; EC50 [12]: 136 nM; selectivity ratio (in vitro [14]): 51; selectivity ratio (in vitro [15]): 1010; selectivity ratio (in vitro [17]): 595; selectivity ratio (in vitro [18]): 145
Cc1cc(C#N)cc(C)c1Oc1nc(Nc2ccc(C#N)cc2)nc2c1CN(C(=O)c1cccc([N+](=O)[O-])c1)CC2,169,> 229000,> 5330,> 28600,7.15,43,> 32100,8,,,,,
Cc1cc(C#N)cc(C)c1Oc1nc(Nc2ccc(C#N)cc2)nc2c1CN(C(=O)c1ccc(C#N)cc1)CC2,154,> 238000,> 5090,> 23000,16.2,46.8,> 14700,10.3,,,,,
O=C1Nc2ccc(Cl)cc2[C@@](C#CC2CC2)(C(F)(F)F)O1 [EFAVIRENZ],,> 6350,,,133,6.82,,,753,425,7.87,433,
Cc1ccnc2c1NC(=O)c1cccnc1N2C1CC1 [NEVIRAPINE],,> 15000,,,7790,205,,155,2290,> 15000,8950,> 15000,EC50 [12]: > 15000 nM
Cc1cc(/C=C/C#N)cc(C)c1Nc1ccnc(Nc2ccc(C#N)cc2)n1 [RILPIVIRINE],,,,,,,,,,,,,CLint scaled [19]: 97.6 mL/min/kg; solubility [20]: < 1 µg/mL; t1/2 [21]: 12.8 min; Stability [22]: 21%; microsomal CLint at 1 h [23]: 108 µL/min/mg
